# Measurements as given in US6034101A, “Dosage form and method for administering drug” (ALZA Corporation, priority 1997, dated 2000).
# What was measured:
# [1] = immediate release form; cited from earlier work
# school children = experiment: Clinical study of Example 1: behavior, activity, mathematics scores and acute tolerance in school children (SKAMP, CLAM); type: in vivo, human
# Method: (§1) The CLAM Test is a behavior rating that indicates social conformity or rebellion as developed by Conners, Lonez, and Milch and SKAMP is a rating that also measures behavior as developed by Swanson and reported in Psychopharmacological Bulletin, Vol. 21, pp. 887-890 (1985).
# (§2) The effect measurements in this study were: (1) observer ratings on SKAMP scale (during classroom time) and (2) performance on the computerized mathematics test. Each child was tested on the mathematics test before the study began, and based on this pre-test during the study, a mathematics test appropriate for each child's ability was given. The morning and evening parent CLAM assessments were used to identify unusual behaviors. The evening parent CLAM was used to determine the presence of treatment effects in the evening hours, particularly treatment effects on the time the child fell asleep, and whether the child's sleep was interrupted. All of the children also wore an activity monitor (Actigraph) which records the movements of the child throughout the day. The activity (number of movements per minute) is recorded electronically and modeled as a function of the drug effect.
# The immediate release tablet and the sustained-release dosage form were compared to a sustained-release dosage form that administered methylphenidate in an ascending profile. The sustained-release ascending profile corresponds to administering 4.2 mg at zero hour, 1.1 mg at 1.5 hours, 1.1 mg at 2 hours, 1.2 mg at 2.5 hours, 1.2 mg at 3.0 hours, 1.3 mg at 3.5 hours, 1.3 mg at 4 hours, 1.5 mg at 4.5 hours, 1.5 mg at 5 hours, 1.8 mg at 5.5 hours, 1.8 mg at 6 hours, and 2.0 mg at 6.5 hours, to produce the sustained-ascending release dotted line profile seen in FIG. 2.
# The accompanying figures present the results of the above-described study. In FIGS. 3, 4, and 5, the line with a clear circle denotes a placebo, the dark circle an immediate release dosage form administered twice a day, the dark squares a sustained release nonascending dosage profile, and the clear squares the sustained ascending release profile provided by this invention. The SKAMP Score and CLAM Score were defined earlier in the specification, and the times are as indicated on the figures. FIG. 3 denotes the observed behavior, FIG. 4 denotes the inattention overactivity, and FIG. 5 denotes the combined attention results of the study.
# patients [2] = experiment: Therapeutic response and acquired tolerance in patients (general statements); type: in vivo, human; settings: sustained-release dosage form with constant plasma concentration; applicant's finding
# patients [3] = settings: cited from earlier work
# [4] = system: children with attention deficient hyperactivity disorder; experiment: Clinical study of Example 2: behavior and combined attention, acquired tolerance in children with attention deficient hyperactivity disorder; type: in vivo, human; settings: total 36 mg
# Method: as §1, §2
# The results of a clinical study that comprises administering methylphenidate according to two distinct delivery programs are reported in this example. […]
# [5] = sustained-nonascending dose, 20 mg, vs placebo
structure (smiles),measurement,setting,value
COC(=O)C(c1ccccc1)C1CCCCN1 (stereo not shown) [methylphenidate],half-life,[1],short half-life
same,onset,[1],rapid onset
same,therapeutic effect / tolerance,school children; controlled-sustained ascending profile,desired therapeutic effect without tolerance
same,acute tolerance,"school children; sustained-nonascending dose, 20 mg",development of acute tolerance
same,activity,school children; [5],decrease in activity
same,inappropriate behavior,school children; [5],lessening of inappropriate behavior
same,mathematical scores,school children; [5],higher mathematical scores
same,efficacy against acquired tolerance,patients [2],lacks efficacy particularly against acquired tolerance
same,tolerance,patients [3]; 5 mg dose twice a day,acquires tolerance
same,time to development of tolerance,patients [3]; after administration,within hours
same,acute tolerance,patients [3]; prior art sustained-release nonascending dosage form,often develops an acute tolerance
same,"behavior, acquired tolerance","[4]; sustained-ascending program, FIG. 7",absence of acquired tolerance
same,"combined attention, acquired tolerance","[4]; sustained-ascending release, FIG. 8",essentially free of developed tolerance
